Test results from US20250032487A1, “DISSOLUTION TEST” (JANSSEN SCIENCES IRELAND UNLIMITED COMPANY, priority 2021, published 2025).

Experiment: In vitro dissolution test, paddle apparatus (USP type 2), polysorbate 20 in 0.05 M sodium phosphate buffer pH 7.4
Type: physicochemical
Experimental: The dissolution of the suspensions was tested using a paddle apparatus (USP type 2, Ph. Eur, JP) with a rotation speed of 50 rpm in 900 mL 6.0% w/v polysorbate 20 in 0.05 M sodium phosphate buffer pH 7.4 at 5° C. The sample amount corresponds to 18 mg rilpivirine.
After 360 minutes the temperature was increased to 37° C. and maintained for 60 minutes to simulate an infinity time point. The samples taken after the temperature infinity time points are labelled as 420 minutes.
The quantity of dissolved drug substance was determined by a gradient ultra-high performance liquid chromatographic (UHPLC) method with UV detection at 280 nm.
The dissolution of the three rilpivirine suspensions in water was performed using Paddle Apparatus (USP type 2, Ph.Eur., JP.) at 50 rpm in 900 mL of 6.0% w/v Polysorbate 20 in 0.05 M Sodium Phosphate buffer pH 7.4, at 5.0±0.5° C. An amount of 64.98 mg (=0.06 mL×1.083 g/mL (the theoretical density of the suspension))±5% of homogeneous suspension of rilpivirine (corresponding to 18±0.9 mg of rilpivirine) was added.
The determination of the quantity of rilpivirine present in the dissolution samples is based upon a gradient ultra-high performance liquid chromatographic (UHPLC) method with UV detection at 280 nm.
The dissolution of a suspension of nanoparticulate rilpivirine having a Dv50 of ˜200 nm was tested using the method of Example 1 but with different temperatures of the dissolution medium (37° C., 25° C., 15° C., and 5° C.).
The dissolution of a suspension of nanoparticulate rilpivirine having a Dv50 of 218 nm was tested using the method of Example 1 but with different concentrations of the surfactant (1-6% w/v polysorbate 20).

[1] = Example 4, nanoparticulate suspension Dv50 ~200 nm, 5° C., 6.0% w/v polysorbate 20, pH 7.4
[2] = Example 5, nanoparticulate suspension Dv50 218 nm, 6% polysorbate 20, 5° C., pH 7.4

Cc1cc(/C=C/C#N)cc(C)c1Nc1ccnc(Nc2ccc(C#N)cc2)n1 [rilpivirine, 4-[[4-[[4-[(1E)-2-cyanoethenyl]-2,6-dimethylphenyl]amino]-2-pyrimidinyl]amino]benzonitrile]
% dissolved after 6 hours [1]: Over 85% | % dissolved at 5 minutes [1]: less than 30% | time until fully dissolved (Example 4, nanoparticulate suspension Dv50 ~200 nm, 37° C., 6.0% w/v polysorbate 20, pH 7.4, 50 rpm, 900 mL): around 10 minutes | delta % dissolved (difference between lowest and highest % dissolved in the dissolution profile) (Example 5, 6% polysorbate 20 method, suspension Dv50 218 nm, 5° C.): approximately 80% | % dissolved after 360 minutes [2]: more than 85% | initial release, % dissolved [2]: below 20%
